The source of these data is patent US20040062815A1, “Bdellosomes” (priority 2000, published 2004).

One data set concerns trypanosomes. Briefly: inhibition of the growth of trypanosomes by free daunomycin. The class given is cell-based, Trypanosoma brucei brucei.
Data set [1] is classed as physicochemical. The text has this: In addition, the simplicity of the synthesis of the bdellosomes resulting from the monomolecular structure of the particle is particularly noteworthy.

In the case of `COc1cccc2c1C(=O)c1c(O)c3c(c(O)c1C2=O)C[C@@](O)(C(C)=O)C[C@@H]3O[C@H]1C[C@H](N)[C@H](O)[C@H](C)O1` [daunomycin], in the data set with trypanosomes, the “concentration in the medium causing inhibition of the growth of trypanosomes” value is recorded as ≥ 10^−7 mol.
For the compound “polyvinyl(te/o-alanylpolylactide)ate[a=4000, b=100] [bdellosomes]”, the Stability entry in data set [1] is “high”.
